According to patent US10233156B2, “9-membered fused ring derivative” (Shionogi & Co., Ltd., priority 2015, dated 2019):

Experiments:
[1] = molecular target: recombinant human ACC2 (Homo sapiens (Human), UniProt O00763); assay: Measurement of inhibitory activity on human ACC2 (MALDI-TOF MS, conversion of acetyl CoA to malonyl CoA); type: biochemical; details: recombinant human ACC2, room temperature, 1 to 3 hours
From the text: After a cDNA encoding human ACC2 (27 amino acid residue to 2458 amino acid residues from the N-terminus) was cloned from human kidney cDNA library (Clontech), human ACC2 gene containing His-tag sequence at 5′ terminus was inserted into pFastBac1 (Invitrogen). Recombinant baculovirus was generated using Bac-to-Bac baculovirus expression system (Invitrogen) according to the manufacturer's protocol. To express human ACC2, Sf-9 cells were infected with recombinant baculovirus. After infected cells were disrupted, the filtrated lysate was subjected to Ni-affinity chromatography and anion-exchange chromatography. The fractions containing human ACC2 protein were pooled as recombinant human ACC2 solution.
(§1) Recombinant human ACC1 and recombinant human ACC2, which were prepared by the method mentioned above, were preincubated with assay buffer solution (50 mM HEPES-KOH (pH 7.4), 10 mM magnesium chloride, 6-10 mM potassium citrate, 4 mM reduced form of glutathione, 1.5 mg/ml bovine serum albumin) for one hour. Then, 0.2 μL of each this invention compound solution (in DMSO) were dispensed to 384-well microplate, 5 μL of the preincubated enzyme solution and 5 μL of substrate solution (50 mM HEPES-KOH (pH 7.4), 1 mM ATP, 0.8 mM acetyl CoA and 25-50 mM potassium bicarbonate) were added to microplate. After centrifugation and shaking, the reaction mixtures were incubated in a humidified box at room temperature for 1 to 3 hours. After the incubation, the enzyme reactions were stopped by the addition of EDTA. Then, after the samples were cocrystallized with CHCA (α-cyano-4-hydroxy cinnamic acid) matrices on MALDI target plate, by using the matrix assist laser […] time-of-flight mass spectrometer (MALDI-TOF MS), samples were measured in reflector negative mode. Deprotonated ions of acetyl CoA (AcCoA) of substrate and malonyl CoA (MalCoA) of the reaction product were detected, then, the conversion rates of acetyl CoA to malonyl CoA was calculated by the intensity of [MalCoA-H]−/(Intensity of [MalCoA-H].+Intensity of [AcCoA-H]—) using each signal strength. […] In addition, potassium citrate concentrations in assay buffer solution, potassium hydrogen carbonate concentrations in substrate solution and incubation time were adjusted by each lot of enzyme.

[2] = molecular target: recombinant human ACC1 (Homo sapiens (Human), UniProt Q13085); assay: Measurement of inhibitory activity on human ACC1 (MALDI-TOF MS, conversion of acetyl CoA to malonyl CoA); type: biochemical; details: recombinant human ACC1, room temperature, 1 to 3 hours
From the text: After a cDNA encoding human ACC1 (1 amino acid residue to 2346 amino acid residues from the N-terminus) was cloned from human liver cDNA library (BioChain), human ACC1 gene containing myc-tag and His-tag sequence at 3′ terminus was inserted into pIEXBAC3 (Novagen). Recombinant baculovirus was generated using FlashBACGOLD system (Oxford Expression Technologies) according to the manufacturer's protocol. To express human ACC1, Sf-9 cells were infected with recombinant baculovirus. After infected cells were disrupted, the filtrated lysate was subjected to Ni-affinity chromatography and anion-exchange chromatography. The fractions containing human ACC1 protein were pooled as recombinant human ACC1 solution.
as §1

Sequence of recombinant human ACC2 (O00763 27-2458): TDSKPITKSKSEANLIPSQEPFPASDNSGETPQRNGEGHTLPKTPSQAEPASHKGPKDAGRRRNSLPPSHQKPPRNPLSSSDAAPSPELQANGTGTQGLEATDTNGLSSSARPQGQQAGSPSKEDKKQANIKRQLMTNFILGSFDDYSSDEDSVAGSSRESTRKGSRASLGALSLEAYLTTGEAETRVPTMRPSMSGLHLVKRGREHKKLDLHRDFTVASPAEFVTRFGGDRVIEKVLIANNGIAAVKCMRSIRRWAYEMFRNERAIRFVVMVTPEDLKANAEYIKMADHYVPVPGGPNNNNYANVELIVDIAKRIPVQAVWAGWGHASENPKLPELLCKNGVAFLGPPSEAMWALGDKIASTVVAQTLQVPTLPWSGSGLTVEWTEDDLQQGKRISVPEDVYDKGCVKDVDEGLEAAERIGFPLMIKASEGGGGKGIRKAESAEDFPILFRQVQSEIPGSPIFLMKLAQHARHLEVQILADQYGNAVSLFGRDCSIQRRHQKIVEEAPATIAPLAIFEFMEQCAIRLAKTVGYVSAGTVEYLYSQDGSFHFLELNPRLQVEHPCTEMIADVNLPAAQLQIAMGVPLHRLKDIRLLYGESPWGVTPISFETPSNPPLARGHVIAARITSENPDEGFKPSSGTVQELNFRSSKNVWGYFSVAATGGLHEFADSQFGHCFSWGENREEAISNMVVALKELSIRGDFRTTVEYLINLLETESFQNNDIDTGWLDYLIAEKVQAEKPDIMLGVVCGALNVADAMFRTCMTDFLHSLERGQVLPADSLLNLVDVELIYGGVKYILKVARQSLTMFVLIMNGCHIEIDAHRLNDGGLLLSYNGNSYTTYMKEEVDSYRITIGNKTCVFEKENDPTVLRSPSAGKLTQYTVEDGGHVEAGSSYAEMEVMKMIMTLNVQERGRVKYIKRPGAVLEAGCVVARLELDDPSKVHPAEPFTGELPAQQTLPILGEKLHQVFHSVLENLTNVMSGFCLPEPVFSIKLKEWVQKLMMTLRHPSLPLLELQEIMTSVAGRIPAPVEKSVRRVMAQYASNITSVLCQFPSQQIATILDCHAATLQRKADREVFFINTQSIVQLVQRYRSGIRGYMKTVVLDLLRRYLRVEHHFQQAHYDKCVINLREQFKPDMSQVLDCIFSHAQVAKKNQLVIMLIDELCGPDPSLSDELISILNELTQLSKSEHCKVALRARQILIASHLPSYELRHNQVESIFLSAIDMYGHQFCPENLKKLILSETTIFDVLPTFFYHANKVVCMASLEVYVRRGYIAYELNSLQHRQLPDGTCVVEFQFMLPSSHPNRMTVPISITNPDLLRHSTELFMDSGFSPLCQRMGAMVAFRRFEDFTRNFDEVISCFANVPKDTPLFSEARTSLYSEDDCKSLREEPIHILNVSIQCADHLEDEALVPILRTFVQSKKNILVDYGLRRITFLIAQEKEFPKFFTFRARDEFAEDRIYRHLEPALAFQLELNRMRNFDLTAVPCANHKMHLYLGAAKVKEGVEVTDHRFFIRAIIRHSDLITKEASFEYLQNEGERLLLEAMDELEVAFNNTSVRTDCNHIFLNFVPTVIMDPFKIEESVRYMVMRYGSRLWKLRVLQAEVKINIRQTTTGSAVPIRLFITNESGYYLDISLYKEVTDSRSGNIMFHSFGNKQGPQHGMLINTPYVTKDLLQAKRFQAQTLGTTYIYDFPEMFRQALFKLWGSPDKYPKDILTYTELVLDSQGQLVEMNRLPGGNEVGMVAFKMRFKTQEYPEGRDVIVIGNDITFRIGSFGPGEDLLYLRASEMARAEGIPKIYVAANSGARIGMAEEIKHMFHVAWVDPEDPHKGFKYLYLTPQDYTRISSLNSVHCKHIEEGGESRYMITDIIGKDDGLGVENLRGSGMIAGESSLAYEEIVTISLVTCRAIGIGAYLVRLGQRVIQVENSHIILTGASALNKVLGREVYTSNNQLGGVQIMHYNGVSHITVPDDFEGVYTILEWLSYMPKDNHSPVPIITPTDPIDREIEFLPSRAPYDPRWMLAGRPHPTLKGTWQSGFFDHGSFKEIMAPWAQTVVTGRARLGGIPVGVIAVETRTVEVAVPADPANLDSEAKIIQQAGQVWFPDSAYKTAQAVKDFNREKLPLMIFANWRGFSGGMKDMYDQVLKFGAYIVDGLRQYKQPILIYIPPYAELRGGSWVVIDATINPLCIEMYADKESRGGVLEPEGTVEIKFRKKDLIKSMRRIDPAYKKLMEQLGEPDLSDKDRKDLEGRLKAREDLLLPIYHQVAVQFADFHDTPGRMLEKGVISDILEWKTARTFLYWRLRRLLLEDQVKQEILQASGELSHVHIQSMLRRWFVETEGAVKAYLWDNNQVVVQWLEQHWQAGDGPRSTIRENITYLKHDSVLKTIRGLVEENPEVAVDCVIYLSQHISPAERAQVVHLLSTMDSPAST

| Compound | IC50 [1] | IC50 [2] |
| --- | --- | --- |
| CC(=O)N[C@@H](C)CO[C@H]1CC[C@H](Oc2nc3c(F)cc(OCC4(F)COC4)c(F)c3n2C)CC1 [Example I-195] | 35 nM |  |
| CC(=O)N[C@@H](C)CC[C@H]1OC[C@H](Oc2nc3c(F)cc(OCC(F)F)c(F)c3n2C)C[C@@H]1F [Example I-196] | 10 nM |  |
| C[C@@H](CO[C@H]1CC[C@H](Oc2nc3ccc(OC4CC4)cc3n2C)CC1)NC(N)=O [Example I-197] | 13 nM |  |
| C[C@@H](CO[C@H]1CC[C@H](Oc2nc3ccc(OC4CC4)c(F)c3n2C)CC1)NC(N)=O [Example I-198] | 5.3 nM |  |
| CC(=O)N[C@@H](C)CO[C@H]1CC[C@H](Oc2nc3ncc(OC4CC4)cc3n2C)CC1 [Example I-199] | 730 nM | > 100000 nM |
| CC(=O)N[C@@H](CF)CO[C@H]1CC[C@H](Oc2nc3c(F)cc(OC4CC4)cc3n2C)CC1 [Example I-201] | 4.7 nM |  |
| CC(=O)N[C@@H](C)CO[C@H]1CC[C@H](Oc2nc3ccc(OC4(C)CC4)cc3n2C)CC1 [Example I-202] | 17 nM |  |
| CC(=O)N[C@@H](C)CO[C@H]1CC[C@H](Oc2nc3c(F)cc(OC4(C)COC4)c(F)c3n2C)CC1 [Example I-203] | 110 nM |  |
| C[C@@H](CO[C@H]1CC[C@H](Oc2nc3ncc(OC4CC4)cc3n2C)CC1)NC(N)=O [Example I-204] |  | > 100000 nM |
| CC(=O)N[C@@H](CF)CO[C@H]1CC[C@H](Oc2nc3c(F)cc(OCC(F)F)c(Cl)c3n2C)CC1 [Example I-205] | 4.6 nM |  |
| CC(=O)N[C@@H](CF)CO[C@H]1CC[C@H](Oc2nc3c(C#N)cc(OC4CC4)c(F)c3n2C)CC1 [Example I-206] | 12 nM |  |
| CC(=O)N[C@@H](C)CO[C@H]1CC[C@H](Oc2nc3cc(F)c(OC4CC4)c(F)c3n2C)CC1 [Example I-207] | 5.4 nM |  |
| CC(=O)N[C@@H](C)CO[C@H]1CC[C@H](Oc2nc3c(F)cc(OCC(F)F)c(F)c3n2C)CC1 [Example I-208] | 8.7 nM |  |
| CC(=O)N[C@@H](C)CO[C@H]1CC[C@H](Oc2nc3c(F)c(F)c(OCC(F)F)c(F)c3n2C)CC1 [Example I-209] | 5.3 nM |  |
| CC(=O)N[C@@H](CF)CO[C@H]1CC[C@H](Oc2nc3cnc(OC4CC4)c(F)c3n2C)CC1 [Example I-210] | 7.2 nM |  |
| CC(=O)N[C@@H](C)CO[C@H]1CC[C@H](Oc2nc3cc(Cl)c(F)cc3n2C)CC1 [Example I-211] | 120 nM |  |
| CC(=O)N[C@@H](C)CO[C@H]1CC[C@H](Oc2nc3cc(F)c(OC4CC4)cc3n2C)CC1 [Example I-212] | 55 nM |  |
| Cn1c(O[C@H]2CC[C@H](OC[C@H](CF)NC(N)=O)CC2)nc2c(F)cc(OC3CC3)cc21 [Example I-213] | 8.9 nM |  |
| CC(=O)N[C@@H](C)C(F)(F)C[C@H]1CC[C@H](Oc2nc3c(F)cc(OCC(F)F)c(F)c3n2C)CO1 [Example I-214] | 12 nM |  |
| CC(=O)N[C@@H](C)CO[C@H]1CC[C@H](Oc2nc3cc(F)c(F)c(F)c3n2C)CC1 [Example I-215] | 17 nM |  |
| CC(=O)N[C@@H](C)CO[C@H]1CC[C@H](Oc2nc3c(F)cc(OC4CC5(COC5)C4)c(F)c3n2C)CC1 [Example I-216] | 57 nM |  |
| CC(=O)N[C@@H](C)CO[C@H]1CC[C@H](Oc2nc3cc(F)c(Cl)cc3n2C)CC1 [Example I-217] | 64 nM |  |
| C[C@@H](CO[C@H]1CC[C@H](Oc2nc3cc(F)c(OC4CC4)cc3n2C)CC1)NC(N)=O [Example I-218] | 120 nM |  |
| CC(=O)N[C@@H](C)CO[C@H]1CC[C@H](Oc2nc3c(F)cc(OC4COC4)c(Cl)c3n2C)CC1 [Example I-219] | 12 nM |  |
| CC(=O)N[C@H](C)C(F)(F)C[C@H]1CC[C@H](Oc2nc3c(F)cc(OCC(F)F)c(F)c3n2C)CO1 [Example I-220] | 180 nM |  |
| CC(=O)N[C@@H](C)CO[C@H]1CC[C@H](Oc2nc3ccc(OC4CC4)cc3n2C)CC1 [Example I-221] | 9.1 nM |  |
| C[C@@H](CO[C@H]1CC[C@H](Oc2nc3c(Cl)cc(OC4CC4)cc3n2C)CC1)NC(N)=O [Example I-222] | 17 nM |  |
| CC(=O)N[C@@H](C)CO[C@H]1CC[C@H](Oc2nc3c(F)cc(O[C@H]4C[C@H](O)C4)c(F)c3n2C)CC1 [Example I-223] | 87 nM |  |

| Compound | IC50 [1] | IC50 [2] |
| --- | --- | --- |
| CC(=O)N[C@@H](C)CO[C@H]1CC[C@H](Oc2nc3cnc(OC4CC4)cc3n2C)CC1 [Example I-224] | 150 nM |  |
| CC(=O)N[C@@H](C)CO[C@H]1CC[C@H](Oc2nc3c(C#N)cc(OC4CC4)cc3n2C)CC1 [Example I-225] | 33 nM |  |
| CC(=O)N[C@@H](C)CO[C@H]1CC[C@H](Oc2nc3c(C#N)cc(OC4CCC4)c(F)c3n2C)CC1 [Example I-226] | 6.1 nM |  |
| Cn1c(O[C@H]2CC[C@H](OC[C@H](CF)NC(=O)CC#N)CC2)nc2c(F)cc(OCC(F)F)c(F)c21 [Example I-227] | 44 nM |  |
| CC(=O)N[C@@H](C)CC[C@H]1OC[C@H](Oc2nc3c(F)cc(OCC(F)F)c(F)c3n2C)CC1(F)F [Example I-228] | 13 nM |  |
| C[C@@H](CO[C@H]1CC[C@H](Oc2nc3cnc(OC4CC4)cc3n2C)CC1)NC(N)=O [Example I-229] | 600 nM |  |
| CC(=O)N[C@@H](C)CC(F)(F)[C@@H]1CC[C@@H](Oc2nc3c(F)cc(OCC(F)F)c(F)c3n2C)CO1 [Example I-230] | 89 nM | > 100000 nM |
| CC(=O)N[C@@H](C)CO[C@H]1CC[C@H](Oc2nc3c(F)cc(OC(F)F)c(F)c3n2C)CC1 [Example I-231] | 10 nM |  |
| Cn1c(O[C@H]2CC[C@H](OC[C@H](CF)NC(N)=O)CC2)nc2c(F)cc(OCC(F)F)c(F)c21 [Example I-232] | 11 nM |  |
| Cn1c(O[C@H]2CC[C@H](OC[C@H](CF)NC(=O)C3CC3)CC2)nc2c(F)cc(OCC(F)F)c(F)c21 [Example I-233] | 31 nM | > 100000 nM |
| CC(=O)N[C@@H](C)CO[C@H]1CC[C@H](Oc2nc3ccc(OC4CC4)nc3n2C)CC1 [Example I-234] | 13 nM |  |
| C[C@@H](CO[C@H]1CC[C@H](Oc2nc3c(F)c(F)c(F)c(F)c3n2C)CC1)NC(N)=O [Example I-235] | 43 nM |  |
| C[C@@H](CO[C@H]1CC[C@H](Oc2nc3cnc(OC4CC4)c(F)c3n2C)CC1)NC(N)=O [Example I-237] | 12 nM |  |
| CC(=O)N[C@@H](C)CO[C@H]1CC[C@H](Oc2nc3cc(F)c(F)cc3n2C)CC1 [Example I-238] | 83 nM |  |
| COC(=O)N[C@@H](CF)CO[C@H]1CC[C@H](Oc2nc3c(F)cc(OCC(F)F)c(F)c3n2C)CC1 [Example I-239] | 30 nM |  |
| C[C@@H](CO[C@H]1CC[C@H](Oc2nc3ccc(OC4CC4)nc3n2C)CC1)NC(N)=O [Example I-240] | 44 nM |  |
| C[C@@H](CO[C@H]1CC[C@H](Oc2nc3cc(F)c(OC4CC4)c(F)c3n2C)CC1)NC(N)=O [Example I-241] | 9.5 nM |  |
| C[C@@H](CO[C@H]1CC[C@H](Oc2nc3c(F)cc(OCC(F)F)c(F)c3n2C)CC1)NS(N)(=O)=O [Example I-242] | 120 nM | > 100000 nM |
| C[C@@H](CO[C@H]1CC[C@H](Oc2nc3c(F)cc(OC4CC4)cc3n2C)CC1)NC(N)=O [Example I-243] | 5.6 nM |  |
| CC(=O)N[C@@H](C)CO[C@H]1CC[C@H](Oc2nc3c(F)cc(OCC(C)(C)C#N)c(F)c3n2C)CC1 [Example I-244] | 26 nM |  |
| Cn1c(O[C@H]2CC[C@H](OC[C@H](CF)NC(=O)CO)CC2)nc2c(F)cc(OCC(F)F)c(F)c21 [Example I-245] | 53 nM | > 100000 nM |
| CC(=O)N[C@@H](C)CO[C@H]1CC[C@H](Oc2nc3c(F)cc(O[C@H]4C[C@@H](O)C4)c(F)c3n2C)CC1 [Example I-246] | 78 nM |  |
| CC(=O)N[C@@H](C)CO[C@H]1CC[C@H](Oc2nc3ccc(OC4CC4)c(F)c3n2C)CC1 [Example I-247] | 3.9 nM |  |
| CC(=O)N[C@@H](C)CC[C@H]1OC[C@H](Oc2nc3c(F)cc(OC4CC4)cc3n2C)CO1 [Example I-249] | 6.6 nM |  |
| CC(=O)N[C@@H](C)/C=C(\F)[C@@H]1CC[C@@H](Oc2nc3c(F)cc(OCC(F)F)c(F)c3n2C)CO1 [Example I-250] | 21 nM |  |
| CC(=O)N[C@@H](C)CO[C@H]1CC[C@@H](Cc2nc3c(F)cc(OCC(F)F)c(F)c3n2C)CC1 [Example I-251] | 100 nM |  |
| CC(=O)N[C@@H](C)CO[C@H]1CC[C@H](Cc2nc3c(F)cc(OCC(F)F)c(F)c3n2C)CC1 [Example I-252] |  | > 100000 nM |
